Results published in patent publication US10538555B2, “Macrocyclic inhibitors of the PD-1/PD-L1 and CD80(B7-1)/PD-L1 protein/protein interactions” (BRISTOL-MYERS SQUIBB COMPANY, priority 2014, dated 2020).
*1 amine or outer side, *2 acyl side, *3 side chain or, on linkers, in order; H or OH if unused. Where a SMILES comes first, the peptide text is derived from it. Bridges are numbered along the chain shown (N, C = ends). [ ]: non-standard residue; d: D form. ξ: configuration not given here. Phe(3,4,5-F3) = N[C@@H](Cc1cc(F)c(F)c(F)c1)C(=O)O; Trp(5-Cl) = N[C@@H](Cc1c[nH]c2ccc(Cl)cc12)C(=O)O; ξTrp(7-aza) = NC(Cc1c[nH]c2ncccc12)C(=O)O; Pro(4R-NH2) = N[C@H]1CN[C@H](C(=O)O)C1; 1Nal = N[C@@H](Cc1cccc2ccccc12)C(=O)O; 2Nal = N[C@@H](Cc1ccc2ccccc2c1)C(=O)O; d(cisHyp) = O=C(O)[C@H]1C[C@@H](O)CN1; Hyp = O=C(O)[C@@H]1C[C@@H](O)CN1; NMeF = CN[C@@H](Cc1ccccc1)C(=O)O; X1 = O=C([C@H]1COCCN1[*:1])[*:2]; hPhe = N[C@@H](CCc1ccccc1)C(=O)O; Cha = N[C@@H](CC1CCCCC1)C(=O)O; NMeNle = CCCC[C@H](NC)C(=O)O; Tle = CC(C)(C)[C@H](N)C(=O)O; dPip = O=C(O)[C@H]1CCCCN1; Orn = NCCC[C@H](N)C(=O)O; dNMeA = CN[C@H](C)C(=O)O; Sar = CNCC(=O)O

What follows are compounds tested against T1, Human PD-L1/PD-1 (Homo sapiens, UniProt Q9NZQ7) (assay: HTRF Human PD-L1/PD-1 binding assay (PD-1-Ig/PD-L1-His)). Conditions: PD-L1-His 10 nM, PD-1-Ig 20 nM; class symbol; read-out: HTRF Human PD-L1/PD-1 Binding Assay IC50 Range.
T1 construct: TVMV protease cleavage site (C); made in house; host or cells: HEK293T cells
T1 sequence (Q9NZQ7 with tags, fused parts or gaps): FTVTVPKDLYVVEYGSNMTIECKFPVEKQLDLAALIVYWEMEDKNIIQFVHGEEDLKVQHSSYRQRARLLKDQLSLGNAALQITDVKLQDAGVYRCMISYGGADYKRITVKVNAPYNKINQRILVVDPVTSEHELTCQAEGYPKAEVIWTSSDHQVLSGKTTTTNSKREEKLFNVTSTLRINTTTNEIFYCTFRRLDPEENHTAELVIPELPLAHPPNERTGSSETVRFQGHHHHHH
Outline: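 Inhibitors were preincubated 15 min with human PD-L1(18-239)-His (10 nM final), then PD-1(25-167)-Ig (20 nM final) was added for 15 min in dPBS/0.1% BSA/0.05% Tween-20. Eu-cryptate anti-Ig (1 nM) and APC anti-His (20 nM) were added; 665/620 nm ratio read after 30 min.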

Row | SMILES | IC50 [nM]
1 | CCCC[C@H]1C(=O)N2C[C@H](O)C[C@@H]2C(=O)N2C[C@H](O)C[C@H]2C(=O)N[C@@H](C(C)C)C(=O)N(C)[C@@H](Cc2ccccc2)C(=O)N[C@@H](CCC(=O)O)C(=O)N2CCCC[C@@H]2C(=O)N[C@@H](Cc2c[nH]c3ccccc23)C(=O)N[C@@H](Cc2ccc(O)cc2)C(=O)N[C@@H](CCCN)C(=O)N[C@H](C(=O)NCC(N)=O)CSCC(=O)N[C@@H](Cc2cc(F)c(F)c(F)c2)C(=O)N(C)[C@@H](Cc2ccccc2)C(=O)N1C [Example 3228] ({CH2CO}-[Phe(3,4,5-F3)][NMeF][NMeNle][d(cisHyp)][Hyp]V[NMeF]E[dPip]WY[Orn]CG-NH2; thioether N-13) | 10 to 99.9
2 | CCCC[C@H]1C(=O)N(C)CC(=O)N[C@@H](CC(=O)O)C(=O)N[C@@H](C(C)C)C(=O)N[C@@H](Cc2c[nH]c3ccccc23)C(=O)N[C@@H](Cc2ccc(O)cc2)C(=O)N(C)CC(=O)N[C@@H](Cc2c[nH]c3ccccc23)C(=O)N[C@@H](Cc2ccc(O)cc2)C(=O)N[C@@H](CC(C)C)C(=O)N[C@H](C(=O)NCC(N)=O)CSCC(=O)N[C@@H](Cc2ccccc2)C(=O)N(C)[C@@H](Cc2ccccc2)C(=O)N1C [Example 3232] ({CH2CO}-F[NMeF][NMeNle][Sar]DVWY[Sar]WYLCG-NH2; thioether N-13) | 1000 to 10000
3 | CCCC[C@H]1C(=O)N(C)CC(=O)N[C@@H](CC(=O)O)C(=O)N[C@@H](C(C)C)C(=O)N(C)[C@@H](Cc2ccccc2)C(=O)N[C@@H](Cc2ccc(O)cc2)C(=O)N(C)CC(=O)N[C@@H](Cc2c[nH]c3ccccc23)C(=O)N[C@@H](Cc2ccc(O)cc2)C(=O)N[C@@H](CC(C)C)C(=O)N[C@H](C(=O)NCC(N)=O)CSCC(=O)N[C@@H](Cc2ccc3ccccc3c2)C(=O)N(C)[C@@H](Cc2ccccc2)C(=O)N1C [Example 3233] ({CH2CO}-[2Nal][NMeF][NMeNle][Sar]DV[NMeF]Y[Sar]WYLCG-NH2; thioether N-13) | 1000 to 10000
4 | CCCC[C@H]1C(=O)N(C)CC(=O)N[C@@H](CC(=O)O)C(=O)N[C@@H](C(C)C)C(=O)N(C)[C@@H](Cc2ccccc2)C(=O)N[C@@H](Cc2ccc(O)cc2)C(=O)N(C)CC(=O)N[C@@H](Cc2c[nH]c3ccccc23)C(=O)N[C@@H](Cc2ccc(O)cc2)C(=O)N[C@@H](CC(C)C)C(=O)N[C@H](C(=O)NCC(N)=O)CSCC(=O)N[C@@H](Cc2cccc3ccccc23)C(=O)N(C)[C@@H](Cc2ccccc2)C(=O)N1C [Example 3235] ({CH2CO}-[1Nal][NMeF][NMeNle][Sar]DV[NMeF]Y[Sar]WYLCG-NH2; thioether N-13) | 1000 to 10000
5 | CCCC[C@H]1C(=O)N(C)CC(=O)N[C@@H](CC(=O)O)C(=O)N[C@@H](C(C)C)C(=O)N(C)[C@@H](Cc2ccccc2)C(=O)N[C@@H](Cc2ccc(O)cc2)C(=O)N(C)CC(=O)N[C@@H](Cc2c[nH]c3ccc(Cl)cc23)C(=O)N[C@@H](Cc2ccc(O)cc2)C(=O)N[C@@H](CC(C)C)C(=O)N[C@H](C(=O)NCC(N)=O)CSCC(=O)N[C@@H](Cc2ccccc2)C(=O)N(C)[C@@H](Cc2ccccc2)C(=O)N1C [Example 3236] ({CH2CO}-F[NMeF][NMeNle][Sar]DV[NMeF]Y[Sar][Trp(5-Cl)]YLCG-NH2; thioether N-13) | 10 to 99.9
6 | CCCC[C@H]1C(=O)N(C)CC(=O)N[C@@H](CC(N)=O)C(=O)N[C@@H](C(C)C)C(=O)N(C)[C@@H](Cc2ccccc2)C(=O)N[C@@H](Cc2ccc(O)cc2)C(=O)N(C)CC(=O)N[C@@H](Cc2c[nH]c3ccccc23)C(=O)N[C@@H](Cc2ccc(O)cc2)C(=O)N[C@@H](CC(C)C)C(=O)N[C@H](C(=O)NCC(N)=O)CSCC(=O)N[C@@H](Cc2ccccc2)C(=O)N(C)[C@@H](Cc2ccccc2)C(=O)N1C [Example 3237] ({CH2CO}-F[NMeF][NMeNle][Sar]NV[NMeF]Y[Sar]WYLCG-NH2; thioether N-13) | 10 to 99.9
7 | CCCC[C@H]1C(=O)N(C)CC(=O)N[C@@H](CC(=O)O)C(=O)N[C@@H](C(C)C)C(=O)N(C)[C@@H](Cc2ccccc2)C(=O)N[C@@H](Cc2ccc(O)cc2)C(=O)N(C)CC(=O)N[C@@H](Cc2c[nH]c3ccccc23)C(=O)N[C@@H](Cc2ccc(O)cc2)C(=O)N[C@@H](CC(C)C)C(=O)N[C@H](C(=O)NCC(N)=O)CSCC(=O)N[C@@H](CC2CCCCC2)C(=O)N(C)[C@@H](Cc2ccccc2)C(=O)N1C [Example 3238] ({CH2CO}-[Cha][NMeF][NMeNle][Sar]DV[NMeF]Y[Sar]WYLCG-NH2; thioether N-13) | 100 to 990
8 | CCCC[C@H]1C(=O)N(C)CC(=O)N[C@@H](CC(=O)O)C(=O)N[C@@H](C(C)C)C(=O)N(C)[C@@H](Cc2ccccc2)C(=O)N[C@@H](Cc2ccc(O)cc2)C(=O)N(C)CC(=O)NC(Cc2c[nH]c3ncccc23)C(=O)N[C@@H](Cc2ccc(O)cc2)C(=O)N[C@@H](CC(C)C)C(=O)N[C@H](C(=O)NCC(N)=O)CSCC(=O)N[C@@H](Cc2ccccc2)C(=O)N(C)[C@@H](Cc2ccccc2)C(=O)N1C (stereo partly shown) [Example 3239] ({CH2CO}-F[NMeF][NMeNle][Sar]DV[NMeF]Y[Sar][ξTrp(7-aza)]YLCG-NH2; thioether N-13) | 10 to 99.9
9 | CCCC[C@H]1C(=O)N(C)CC(=O)N[C@@H](CC(=O)O)C(=O)N[C@@H](C(C)C)C(=O)N(C)[C@@H](Cc2ccccc2)C(=O)N[C@@H](Cc2ccc(O)cc2)C(=O)N(C)CC(=O)NC(Cc2c[nH]c3ncccc23)C(=O)N[C@@H](Cc2ccc(O)cc2)C(=O)N[C@@H](CC(C)C)C(=O)N[C@H](C(=O)NCC(N)=O)CSCC(=O)N[C@@H](CC2CCCCC2)C(=O)N(C)[C@@H](Cc2ccccc2)C(=O)N1C (stereo partly shown) [Example 3240] ({CH2CO}-[Cha][NMeF][NMeNle][Sar]DV[NMeF]Y[Sar][ξTrp(7-aza)]YLCG-NH2; thioether N-13) | 100 to 990

Continued, values first:

Row | IC50 [nM] | SMILES
10 | 1 to 9.9 | CCCC[C@H]1C(=O)N2CCC[C@@H]2C(=O)N[C@@H](CC(=O)O)C(=O)N[C@@H](C(C)(C)C)C(=O)N(C)[C@@H](Cc2ccccc2)C(=O)N[C@@H](Cc2ccc(O)cc2)C(=O)N2CCOC[C@@H]2C(=O)N[C@@H](Cc2c[nH]c3ccccc23)C(=O)N[C@@H](Cc2ccc(O)cc2)C(=O)N[C@@H](CC(C)C)C(=O)N[C@H](C(=O)NCC(N)=O)CSCC(=O)N[C@@H](Cc2cc(F)c(F)c(F)c2)C(=O)N(C)[C@@H](Cc2ccccc2)C(=O)N1C [Example 3223] ({CH2CO}-[Phe(3,4,5-F3)][NMeF][NMeNle][dP]D[Tle][NMeF]Y[X1]WYLCG-NH2; thioether N-13)
11 | 10 to 99.9 | CCCC[C@H]1C(=O)N(C)[C@H](C)C(=O)N[C@@H](CC(=O)O)C(=O)N[C@@H](C(C)C)C(=O)N(C)[C@@H](Cc2ccccc2)C(=O)N[C@@H](Cc2ccc(O)cc2)C(=O)N(C)[C@H](C)C(=O)N[C@@H](Cc2c[nH]c3ccccc23)C(=O)N[C@@H](Cc2ccc(O)cc2)C(=O)N[C@@H](CC(C)C)C(=O)N[C@H](C(=O)NCC(N)=O)CSCC(=O)N[C@@H](Cc2cc(F)c(F)c(F)c2)C(=O)N(C)[C@@H](Cc2ccccc2)C(=O)N1C [Example 3224] ({CH2CO}-[Phe(3,4,5-F3)][NMeF][NMeNle][dNMeA]DV[NMeF]Y[dNMeA]WYLCG-NH2; thioether N-13)
12 | 1 to 9.9 | CCCC[C@H]1C(=O)N(C)CC(=O)N[C@@H](CC(=O)O)C(=O)N[C@@H]([C@@H](C)O)C(=O)N(C)[C@@H](Cc2ccccc2)C(=O)N[C@@H](Cc2ccc(O)cc2)C(=O)N(C)CC(=O)N[C@@H](Cc2c[nH]c3ccccc23)C(=O)N[C@@H](Cc2ccc(O)cc2)C(=O)N[C@@H](CC(C)C)C(=O)N[C@H](C(=O)NCC(N)=O)CSCC(=O)N[C@@H](Cc2ccccc2)C(=O)N(C)[C@@H](Cc2ccccc2)C(=O)N1C [Example 3225] ({CH2CO}-F[NMeF][NMeNle][Sar]DT[NMeF]Y[Sar]WYLCG-NH2; thioether N-13)
13 | 1 to 9.9 | CCCC[C@H]1C(=O)N2C[C@H](O)C[C@@H]2C(=O)N2C[C@H](N)C[C@H]2C(=O)N[C@@H](C(C)C)C(=O)N(C)[C@@H](Cc2ccccc2)C(=O)N[C@@H](CCC(=O)O)C(=O)N2CCCC[C@@H]2C(=O)N[C@@H](Cc2c[nH]c3ccccc23)C(=O)N[C@@H](Cc2ccc(O)cc2)C(=O)N[C@@H](CC(C)C)C(=O)N[C@H](C(=O)NCC(N)=O)CSCC(=O)N[C@@H](Cc2cc(F)c(F)c(F)c2)C(=O)N(C)[C@@H](Cc2ccccc2)C(=O)N1C [Example 3227] ({CH2CO}-[Phe(3,4,5-F3)][NMeF][NMeNle][d(cisHyp)][Pro(4R-NH2)]V[NMeF]E[dPip]WYLCG-NH2; thioether N-13)
14 | 1 to 9.9 | CCCC[C@H]1C(=O)N(C)CC(=O)N[C@@H](CC(=O)O)C(=O)N[C@@H](C(C)C)C(=O)N(C)[C@@H](Cc2ccccc2)C(=O)N[C@@H](Cc2c[nH]c3ccccc23)C(=O)N(C)CC(=O)N[C@@H](Cc2c[nH]c3ccccc23)C(=O)N[C@@H](Cc2ccc(O)cc2)C(=O)N[C@@H](CC(C)C)C(=O)N[C@H](C(=O)NCC(N)=O)CSCC(=O)N[C@@H](Cc2ccccc2)C(=O)N(C)[C@@H](Cc2ccccc2)C(=O)N1C [Example 3231] ({CH2CO}-F[NMeF][NMeNle][Sar]DV[NMeF]W[Sar]WYLCG-NH2; thioether N-13)

Same assay, conditions: PD-L1-His 10 nM, PD-1-Ig 20 nM; read-out: HTRF Human PD-L1/PD-1 Binding Assay IC50

Row | IC50 [nM] | SMILES
15 | 1860 | CCCC[C@H]1C(=O)N(C)CC(=O)N[C@@H](CC(=O)O)C(=O)N[C@@H](CCc2ccccc2)C(=O)N(C)[C@@H](Cc2ccccc2)C(=O)N[C@@H](Cc2ccc(O)cc2)C(=O)N(C)CC(=O)N[C@@H](Cc2c[nH]c3ccccc23)C(=O)N[C@@H](Cc2ccc(O)cc2)C(=O)N[C@@H](CC(C)C)C(=O)N[C@H](C(=O)NCC(N)=O)CSCC(=O)N[C@@H](Cc2ccccc2)C(=O)N(C)[C@@H](Cc2ccccc2)C(=O)N1C [Example 3226] ({CH2CO}-F[NMeF][NMeNle][Sar]D[hPhe][NMeF]Y[Sar]WYLCG-NH2; thioether N-13)
16 | 10000 | CCCC[C@H]1C(=O)N(C)CC(=O)N[C@@H](CC(=O)O)C(=O)N[C@@H](C(C)C)C(=O)N[C@@H](Cc2c[nH]c3ccccc23)C(=O)N[C@@H](Cc2c[nH]c3ccccc23)C(=O)N(C)CC(=O)N[C@@H](Cc2c[nH]c3ccccc23)C(=O)N[C@@H](Cc2ccc(O)cc2)C(=O)N[C@@H](CC(C)C)C(=O)N[C@H](C(=O)NCC(N)=O)CSCC(=O)N[C@@H](Cc2ccccc2)C(=O)N(C)[C@@H](Cc2ccccc2)C(=O)N1C [Example 3234] ({CH2CO}-F[NMeF][NMeNle][Sar]DVWW[Sar]WYLCG-NH2; thioether N-13)
